Values of other authors, collected in patent US5550110A, “Endothelin Antagonists II” (Warner-Lambert Company, priority 1994, dated 1996).
Ends that are not written are not given here. Peptide text beside a SMILES is read from it.

What was measured:
[1] = tested on: renal vasoconstriction after renal ischemia; settings: anesthetized rats; cited from earlier work
[2] = tested on: cerebral vasoconstriction after subarachnoid hemorrhage; settings: rats; cited from earlier work
[3] = tested on: blood pressure; settings: orally administered; cited from earlier work
[4] = tested on: ET-1 induced bronchoconstriction and tracheal smooth muscle contraction; settings: allergic sheep; cited from earlier work
[5] = tested on: endotoxic shock; settings: mouse endotoxic shock; cited from earlier work
[6] = tested on: ET-1 induced pressor response; settings: conscious rats; cited from earlier work
[7] = tested on: blood pressure; settings: intravenous infusion, stroke prone spontaneous hypertensive rats; cited from earlier work
[8] = tested on: acute hypoxia induced pulmonary hypertension; settings: in vivo; cited from earlier work
[9] = tested on: ET-1 induced vasoconstriction; settings: i.v.; cited from earlier work
[10] = tested on: renal vascular resistance; settings: i.v.; cited from earlier work
[11] = tested on: acute CsA toxicity; settings: rat model; cited from earlier work
[12] = tested on: ischemic acute renal failure; settings: i.v., cited from earlier work
[13] = tested on: vasoconstriction after subarachnoid hemorrhage; settings: cited from earlier work
[14] = tested on: ET receptor; settings: cited from earlier work
[15] = tested on: glomerular injury; settings: intraperitoneal, rats; cited from earlier work
[16] = tested on: vasoconstriction of the basilar artery; settings: intracisternal, canine subarachnoid hemorrhage model; cited from earlier work
[17] = tested on: ET-1 induced arrhythmia; settings: rats; cited from earlier work

Compound: COc1cccc(Oc2c(NS(=O)(=O)c3ccc(C(C)(C)C)cc3)ncnc2OCCO)c1 [Ro 46-2005]
- renal vasoconstriction after renal ischemia [1]: protective effect
- cerebral vasoconstriction after subarachnoid hemorrhage [2]: dramatically reduced cerebral vasoconstriction
- antihypertensive effect [3]: marked antihypertensive effect with a reasonably long duration

Compound: CC(C)C[C@@H]1NC(=O)[C@@H](C(C)C)NC(=O)[C@@H]2CCCN2C(=O)[C@@H](CC(=O)O)NC(=O)[C@@H](Cc2c[nH]c3ccccc23)NC1=O [BQ-123] (HELM PEPTIDE1{L.[dW].[dD].P.[dV]}$PEPTIDE1,PEPTIDE1,1:R1-5:R2$$$V2.0)
- ET-1 induced bronchoconstriction and tracheal smooth muscle contraction [4]: block ET-1 induced bronchoconstriction and tracheal smooth muscle contraction
- survival rate [5]: significantly increased the survival rate
- ET-1 induced pressor response [6]: effective in antagonizing the ET-1 induced pressor response
- blood pressure [7]: decreased blood pressure significantly
- prevention of acute hypoxia induced pulmonary hypertension [8]: effective in the prevention of acute hypoxia induced pulmonary hypertension
- ET-1 induced vasoconstriction in rabbit retinal arteries [9]: blocked
- ET-1 induced renal vascular resistance in rats [10]: blocked
- acute CsA toxicity [11]: suppressed
- mitochondrial [Ca2+] accumulation ([12]; early phase of ischemic acute renal failure in rats): prevents the mitochondrial [Ca^2+ ] accumulation
- post-ischemic degeneration of proximal tubular cells ([12]; rats): protects proximal tubular cells from post-ischemic degeneration

Compound: COc1ccccc1Oc1c(NS(=O)(=O)c2ccc(C(C)(C)C)cc2)nc(-c2ncccn2)nc1OCCO [Ro 47-0203]
- blood brain barrier passage ([13]; inferred from the rabbit subarachnoid hemorrhage model): crosses the blood brain barrier
- reversal of vasoconstriction ([13]; rabbit subarachnoid hemorrhage model): effective in a rabbit subarachnoid hemorrhage model in reversing vasoconstriction

Compound: ET[1-20]: ET-1 lacking the C-terminal amino acid Trp-21 (CSCSSLMDKECVYFCHLDII; ends and bridges not checked; cysteine pairing not given here; UniProt P05305 53-72, looked up, fragment)
- functional activity relative to ET-1 [14]: approximately 1000 fold less

Compound: FR 139317
- permeability to proteins, glomerular injury, renal function [15]: reduced abnormal permeability to proteins and limited glomerular injury and prevented renal function deterioration
- vasoconstriction of the basilar artery [16]: significantly reduced the vasoconstriction of the basilar artery
- ET-1 induced arrhythmia [17]: suppressed
